Measurements reported in patent US20240165259A1, “BIOORTHOGONAL REACTION SUITABLE FOR CLICK/UNCLICK APPLICATIONS” (DANA-FARBER CANCER INSTITUTE, INC., priority 2021, published 2024).
“And” between values parts separate entries of the source, which are not always exact repeats. Identical values can stand only once. One block for each compound: values may come before it.

Legend:
[1] = Second-order kinetics of cyclooctyne hydroamination by N,N-diethylhydroxylamine (NMR; competition experiment for 10); type: physicochemical; conditions: CD3CN, room temperature; for k2 (M^−1s^−1), second order rate constant: equimolar cyclooctyne and N,N-diethylhydroxylamine, NMR, error = standard deviation of the mean, triplicate
Experimental: Using NMR spectroscopy to monitor reaction progress, the second order rate constants for the reaction of N,N-diethylhydroxyl amine (1) with a panel of cyclooctynes 2-10 in d3-acetonitrile was determined at room temperature (FIG. 3).
All kinetics experiments were carried out at room temperature in CD3CN. Reactions were monitored via NMR spectroscopy using an internal standard. Second order kinetics were performed by combining cyclooctynes and N,N-diethylhydroxylamine in a 1:1 ratio. […] The reported errors for rate constants are based on the standard deviation of the mean for experiments performed in triplicate.
The second order rate constant for difluorocyclooctyne 10 was determined using a competition experiment with carbamate 9. […] The solution was transferred to an NMR tube and the product ratio (S14:S13) was determined by ^1HNMR spectroscopy using 1,3,5-trimethoxylbenzene as an internal standard. […] The reported error for the rate constant is the standard deviation of the mean for experiments performed in triplicate.

[2] = biological target: T1, lysozyme-cyclooctyne conjugate (Lys-COT) 11″ (Gallus gallus, UniProt P00698); assay: Time-dependent labeling of Lys-COT 11″ by TAMRA-hydroxylamines 6″-10″ (in-gel fluorescence); type: biochemical; conditions: 200 μM hydroxylamine, 10 μM Lys-COT 11″, PBS; for extent of lysozyme labeling: 1-72 h; for time to complete conversion (lysozyme labeling): room temperature
T1 construct: purchased
T1 sequence (P00698 19-147): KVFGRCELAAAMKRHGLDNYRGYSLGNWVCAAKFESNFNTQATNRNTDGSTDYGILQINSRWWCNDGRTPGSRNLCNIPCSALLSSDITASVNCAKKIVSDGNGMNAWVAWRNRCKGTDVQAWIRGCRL
Experimental: The relative rates of hydroamination between TAMRA-hydroxylamines 6″-10″ ([…]) and Lys-COT 11″ (10 μM) were evaluated by monitoring the extent of lysozyme labeling over 1-72 h in phosphate-buffered saline (PBS) at room temperature by in-gel fluorescence (FIG. 26B).
Lysozyme (CAS 12650-88-3, 50 mg/mL in deionized H2O) was diluted into phosphate-buffered saline (PBS, pH 7.4) to a final concentration of 10 mg/mL. […] The reaction solution was incubated for 1 h at room temperature. […] The concentration of lysozyme was determined by A280 measurement in denaturing buffer (pH 7.0, 6 M guanidinium, 30 mM MOPS) on a UV-vis spectrophotometer. The solution was diluted with PBS (pH 7.4) to a final concentration of 0.15 mg/mL or 0.60 mg/mL for labeling experiments. The protein solutions were snap frozen under liquid nitrogen and stored at −20° C.
Time-dependent protein labeling experiments: A solution of TAMRA-hydroxylamine 6″ (Kang, et al., J. Am. Chem. Soc. 143:5616-5621 (2021))-8″ and 10″ (1.26 μL, 5 mM in H2O; 200 μM final concentration) or 9″ (1.26 μL, 5 mM in 50% DMSO/H2O; 200 μM final concentration) was added to a solution of lysozyme-COT 11″ (30.0 μL, 0.15 mg/mL in PBS, pH 7.4). The reaction mixtures were incubated at room temperature in the dark. At each time point, an aliquot of the reaction mixture (3 uL) was removed, quenched by adding 1×SDS sample buffer (19.5 μL) and N,N-diethylhydroxylamine (7.5 uL, 100 mM in H2O; 25 mM final concentration), snap frozen in liquid nitrogen, and stored at −80° C. until all samples were ready to be loaded on the gel. After 72 h, all reactions had been quenched. All samples were thawed, and each solution (6 μL) was loaded onto a 15-well 12% SDS-PAGE gel. The gel was run at room temperature and at 175 V for 50 min. In-gel fluorescence was imaged with a Typhoon™ FLA 9500 (GE) at 532 nm with a photomultiplier tube (PMT) setting of 500 V (FIG. 35-FIG. 37).

[3] = Stability study of alkynes and enamine N-oxide 20′ in 50% CD3CN/PBS with or without glutathione or cell lysate (19F NMR); type: physicochemical; conditions: for time over which compound is stable: 2 mM compound, 50% CD3CN/PBS (pH 7.0), 19F NMR; for degradation by 19F NMR without glutathione: pH 7.0, room temperature, 7 days
Experimental: The stability of alkynes 13′-15′ under biological conditions was evaluated (FIG. 13B). […] These stabilities compared favorably with contemporary bioorthogonal transformations (Oliveira et al., Chem. Soc. Rev. 46(16):4895-4950 (2017); Tian et al., ACS Chem. Biol. 14(12):2489-2496 (2019)). […] This observation was consistent with σ-withdrawing/n-donating alkyne substituents, such as halogens, simultaneously promoting hydroamination and attenuating conjugate addition by cellular nucleophiles.
The enamine N-oxide products were remarkably stable, especially in aqueous solutions.
All stability experiments were carried out at room temperature in 50% CD3CN in PBS (pH 7.0) with or without equimolar glutathione. pH was adjusted after the addition of glutathione. Reactions were monitored via ^19F NMR spectroscopy using α,α,α-benzotrifluoride as an internal standard (FIG. 17-FIG. 20).

[4] = Reactivity screening of linear alkynes 8′-15′ (NMR conversion); type: physicochemical; conditions: 10 mM alkyne, 5 equivalents hydroxylamine, CD3CN, room temperature, 48 hours
Experimental: With the desired alkynes in hand, their reactivity toward N,N-diethylhydroxylamine (2′) was examined. […] were each incubated with 5 equivalents of […] in CD3CN at room temperature, and the reaction conversions were monitored by ^1H (alkyne 8′) or ^19F (alkynes 9′-15′) NMR (FIG. 12A). […] Their conversion to the corresponding enamine N-oxides could only be achieved upon heating to 60° C. (Example 59).
Each experiment was performed with 10 mM alkyne (8′-15′) and 50 mM […] in CD3CN at room temperature. The consumption of starting material was monitored via ^1H (8′) or ^19F (9′-15′) NMR spectroscopy using α,α,α-benzotrifluoride as an internal standard (FIG. 12A).

Compound: OC1C#CCCCCC1 (centres unmarked) [compound 4, cyclooct-2-yn-1-ol]
k2 (M^−1s^−1), second order rate constant [1]: 1.19 ± 0.15 M⁻¹ s⁻¹

extent of lysozyme labeling [2]: poor labeling
Compound: CN(C)c1ccc2c(c1)Oc1cc(N(C)C)ccc1C21OC(=O)c2ccc(C(=O)NCCOCCN(O)C(C)(C)C)cc21 [8″, N-(2-(2-(tert-Butyl(hydroxy)amino)ethoxy)ethyl)-3′,6′-bis(dimethylamino)-3-oxo-3H-spiro[isobenzofuran-1,9′-xanthene]-6-carboxamide]

time to degradation in the presence of thiol ([3]; 50% CD3CN/PBS, pH 7.0, 2 mM glutathione): < 10 min
Compound: COc1ccc(COCCOC(F)(F)C#CBr)cc1 [13′, 1-((2-((3-bromo-1,1-difluoroprop-2-yn-1-yl)oxy)ethoxy)methyl)-4-methoxybenzene]

degradation in cell lysate ([3]; cell lysate, room temperature, 24 hours): no observable degradation
Compound: CC[N+]([O-])(CC)/C(Cl)=C/C(F)(F)OCCOCc1ccc(OC)cc1 [20′, (Z)-1-chloro-N,N-diethyl-3,3-difluoro-3-(2-((4-methoxybenzyl)oxy)ethoxy)prop-1-en-1-amine oxide]

extent of lysozyme labeling [2]: poor labeling
Compound: CC(C)N(O)CCOCCNC(=O)c1ccc2c(c1)C1(OC2=O)c2ccc(N(C)C)cc2Oc2cc(N(C)C)ccc21 [7″, 3′,6′-Bis(dimethylamino)-N-(2-(2-(hydroxy(isopropyl)amino)ethoxy)ethyl)-3-oxo-3H-spiro[isobenzofuran-1,9′-xanthene]-6-carboxamide]

Compound: dibenzoazacyclooctyne [compound 8, reference compound]
k2 (M^−1s^−1), second order rate constant [1]: 2.77 ± 0.13 M⁻¹ s⁻¹

Compound: COc1ccc(COCCOC(F)(F)C#CI)cc1 [12′, 1-((2-((1,1-difluoro-3-iodoprop-2-yn-1-yl)oxy)ethoxy)methyl)-4-methoxybenzene]
reactivity toward N,N-dialkylhydroxylamine (NMR conversion) [4]: moderate reactivity

time over which compound is stable [3]: ≥ 2 weeks | degradation by 19F NMR without glutathione ([3]; 50% CD3CN/PBS): no degradation
Compound: COc1ccc(COCCOC(F)(F)C#CCl)cc1 [14′, 1-((2-((3-chloro-1,1-difluoroprop-2-yn-1-yl)oxy)ethoxy)methyl)-4-methoxybenzene]

Compound: C1#CC2(CCCCC1)OCCO2 [compound 5, 1,4-dioxaspiro[4.7]dodec-6-yne]
k2 (M^−1s^−1), second order rate constant [1]: 1.20 ± 0.09 M⁻¹ s⁻¹

Compound: C#CC(F)CCOCc1ccc(OC)cc1 (centres unmarked) [9′, 1-(((3-fluoropent-4-yn-1-yl)oxy)methyl)-4-methoxybenzene]
reactivity toward N,N-dialkylhydroxylamine (NMR conversion) [4]: no conversion

time to complete conversion (lysozyme labeling) [2]: ≤ 6 h
Compound: CN(C)c1ccc2c(c1)Oc1cc(N(C)C)ccc1C21OC(=O)c2ccc(C(=O)NCCOCCN(O)Cc3ccccc3)cc21 [9″, N-(2-(2-(Benzyl(hydroxy)amino)ethoxy)ethyl)-3′,6′-bis(dimethylamino)-3-oxo-3H-spiro[isobenzofuran-1,9′-xanthene]-6-carboxamide]

Compound: C#CCOCc1ccc(OC)cc1 [8′, 1-methoxy-4-((prop-2-yn-1-yloxy)methyl)benzene]
reactivity toward N,N-dialkylhydroxylamine (NMR conversion) [4]: no conversion

time to complete conversion (lysozyme labeling) [2]: ≤ 10 h
Compound: CN(C)c1ccc2c(c1)Oc1cc(N(C)C)ccc1C21OC(=O)c2ccc(C(=O)N3CCN(O)CC3)cc21 [10″, 3′,6′-Bis(dimethylamino)-6-(4-hydroxypiperazine-1-carbonyl)-3H-spiro[isobenzofuran-1,9′-xanthen]-3-one]

Compound: O=C(Nc1ccc([N+](=O)[O-])cc1)OC1C#CCCCCC1 (centres unmarked) [compound 9, cyclooct-2-yn-1-yl (4-nitrophenyl)carbamate]
rate acceleration over cyclooctyne (2) [1]: 120 fold | k2 (M^−1s^−1), second order rate constant [1]: 3.87 M⁻¹ s⁻¹ and 3.87 ± 0.55 M⁻¹ s⁻¹

Compound: C#CC(F)(F)OCCOCc1ccc(OC)cc1 [11′, 1-((2-((1,1-difluoroprop-2-yn-1-yl)oxy)ethoxy)methyl)-4-methoxybenzene]
reactivity toward N,N-dialkylhydroxylamine (NMR conversion) [4]: moderate reactivity

Compound: FC1C#CCCCCC1 (centres unmarked) [compound 7, 3-fluorocyclooct-1-yne]
k2 (M^−1s^−1), second order rate constant [1]: 2.71 ± 0.43 M⁻¹ s⁻¹

time over which compound is stable [3]: ≥ 1 weeks | half-life ([3]; 50% CD3CN/PBS with 2 mM glutathione, pH 7, 50% CD3CN/PBS, pH 7.0, 2 mM glutathione, room temperature (500 μM compound elsewhere in the source), read-out: half-life in the presence of glutathione (converted)): 43 h | degradation by 19F NMR without glutathione ([3]; 50% CD3CN/PBS): no degradation
Compound: COc1ccc(COCCC(F)(F)C#CCl)cc1 [15′, 1-(((5-chloro-3,3-difluoropent-4-yn-1-yl)oxy)methyl)-4-methoxybenzene]

Compound: C#CC(F)(F)CCOCc1ccc(OC)cc1 [10′, 1-(((3,3-difluoropent-4-yn-1-yl)oxy)methyl)-4-methoxybenzene]
reactivity toward N,N-dialkylhydroxylamine (NMR conversion) [4]: partial conversion

Compound: CC(=O)OC1C#CCCCCC1 (centres unmarked) [compound 6, cyclooct-2-yn-1-yl acetate]
k2 (M^−1s^−1), second order rate constant [1]: 2.13 ± 0.03 M⁻¹ s⁻¹
